Measurements from the supplement of paper PMC10307832.

What was measured:
Test in all cases: relative viability (nuclei count vs DMSO), 5 days (fraction); higher = more cells survive
[1] = compound: CCN1CCN(c2ccc(Nc3cc(N(C)C(=O)Nc4c(Cl)c(OC)cc(OC)c4Cl)ncn3)cc2)CC1 [BGJ398] + Cc1cc(Nc2cc(N3CCN(C)CC3)nc(Sc3ccc(NC(=O)C4CC4)cc3)n2)n[nH]1 [Tozasertib] (partner 0.1 µM)
How it was run: (§1)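 Cells from lung cancer lines were seeded into 1536-well plates and, one day later, dosed by pin tool. Treatments were either a single drug or a fixed dose of an anchor drug with five library-drug doses (not always all listed) in √10 steps. After 5 days, nuclei were stained in a one-step fixation (final 0.05% Triton X-100, 1% formaldehyde, 1 ug/ml Hoechst) and counted on 4× images, and relative viability is the treated-to-vehicle nuclei ratio, as the median of duplicate plates.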

[2] = compound: CCN1CCN(c2ccc(Nc3cc(N(C)C(=O)Nc4c(Cl)c(OC)cc(OC)c4Cl)ncn3)cc2)CC1 [BGJ398] + CC(C)C[C@H](NC(=O)[C@H](Cc1ccccc1)NC(=O)c1cnccn1)B(O)O [Bortezomib] (partner 0.002 µM)
How it was run: as §1

[3] = compound: CCN1CCN(c2ccc(Nc3cc(N(C)C(=O)Nc4c(Cl)c(OC)cc(OC)c4Cl)ncn3)cc2)CC1 [BGJ398] + Nc1nc2[nH]cc(CCc3ccc(C(=O)N[C@@H](CCC(=O)O)C(=O)O)cc3)c2c(=O)[nH]1 [Pemetrexed] (partner 0.2 µM)
How it was run: as §1

[4] = compound: C1=CC2=NC=CN=C2C=C1/C=C/3\C(=O)NC(=O)S3 + Cc1nc(Nc2ncc(C(=O)Nc3c(C)cccc3Cl)s2)cc(N2CCN(CCO)CC2)n1 [Dasatinib] (partner 0.075 µM)
How it was run: as §1

Row | Cell Line | relative viability ([1]; first compound 0.01 µM) | relative viability ([1]; first compound 0.03162 µM) | relative viability ([1]; first compound 0.1 µM) | relative viability ([1]; first compound 0.3162 µM) | relative viability ([1]; first compound 1 µM) | relative viability ([2]; first compound 0.01 µM) | relative viability ([2]; first compound 0.03162 µM) | relative viability ([2]; first compound 0.1 µM) | relative viability ([2]; first compound 0.3162 µM) | relative viability ([2]; first compound 1 µM) | relative viability ([3]; first compound 0.01 µM) | relative viability ([3]; first compound 0.03162 µM) | relative viability ([3]; first compound 0.1 µM) | relative viability ([3]; first compound 0.3162 µM) | relative viability ([3]; first compound 1 µM) | relative viability ([4]; first compound 0.02 µM) | relative viability ([4]; first compound 0.06325 µM) | relative viability ([4]; first compound 0.2 µM) | relative viability ([4]; first compound 0.6325 µM) | relative viability ([4]; first compound 2 µM)
1 | NCI-H460 | 0.446 | 0.558 | 0.437 | 0.372 | 0.456 | 1.17 | 1.23 | 1.45 | 1.04 | 1.06 | 0.0621 | 0.0761 | 0.0595 | 0.0608 | 0.0687 | 0.53 | 0.782 | 0.477 | 0.362 | 0.0894
2 | NCI-H520 | 0.424 | 0.421 | 0.321 | 0.273 | 0.271 | 0.538 | 0.54 | 0.259 | 0.201 | 0.162 | 0.691 | 0.532 | 0.531 | 0.341 | 0.311 | 0.181 | 0.229 | 0.217 | 0.161 | 0.151
3 | NCI-H596 | 0.777 | 0.856 | 0.775 | 0.744 | 0.731 | 0.988 | 0.72 | 0.96 | 1.04 | 0.769 | 0.424 | 0.476 | 0.439 | 0.477 | 0.431 | 0.67 | 0.588 | 0.62 | 0.528 | 0.427
4 | NCI-H647 | 0.366 | 0.294 | 0.406 | 0.24 | 0.304 | 0.986 | 1.12 | 1.24 | 0.864 | 0.793 | 0.179 | 0.16 | 0.19 | 0.201 | 0.185 | 0.173 | 0.259 | 0.256 | 0.149 | 0.103
5 | NCI-H650 | 0.681 | 0.809 | 0.802 | 0.785 | 0.75 | 0.777 | 0.909 | 0.845 | 0.837 | 0.627 | 0.988 | 0.931 | 0.995 | 0.956 | 0.974 | 0.524 | 0.468 | 0.561 | 0.415 | 0.286
6 | NCI-H661 | 0.325 | 0.369 | 0.365 | 0.354 | 0.362 | 0.7 | 0.905 | 0.799 | 0.767 | 1 | 0.912 | 0.877 | 0.961 | 0.977 | 0.912 | 1.03 | 1.12 | 0.935 | 0.748 | 0.722
7 | NCI-H838 | 0.317 | 0.305 | 0.262 | 0.234 | 0.201 | 0.636 | 0.921 | 0.655 | 0.776 | 0.5 | 0.227 | 0.243 | 0.217 | 0.237 | 0.23 | 0.278 | 0.179 | 0.311 | 0.257 | 0.187
8 | NCI-H1355 | 0.57 | 0.566 | 0.455 | 0.491 | 0.538 | 1.05 | 1.27 | 1.2 | 1.15 | 0.603 | 0.981 | 1.01 | 1.06 | 1.03 | 0.945 | 0.476 | 0.599 | 0.709 | 0.714 | 0.47
